Experimental data taken from patent US9718812B2, “Substituted thiazole or oxazole P2X7 receptor antagonists” (Axxam S.P.A., priority 2014, dated 2017).

Legend:
Format in all cases: cell-based
P2X7 receptor (hP2X7) = P2X7 receptor (hP2X7) (Homo sapiens (Human), UniProt Q99572); experiment: Screen Quest Fluo-8 No Wash Calcium Assay (Bz-ATP-induced Ca2+ influx, FLIPR TETRA); conditions: HEK-293 cells stably transfected with P2X7 receptor, Fluo-8 calcium, Low Divalent Cation Assay Buffer
Procedure, shortened: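 HEK-293 cells stably transfected with P2X7, pre-loaded with Fluo-8 NW dye for 1 h at RT, then test compounds injected. Ca2+ influx on Bz-ATP stimulation followed as kinetic fluorescence (ex 488 nm, em 515-575 nm) over five minutes.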

P2X7 receptor [1] = molecular target: T1, P2X7 receptor (Homo sapiens (Human), UniProt Q99572); experiment: YO-PRO-1 Uptake Assay (large pore form, Bz-ATP stimulated); conditions: HEK-293 cells stably transfected with P2X7 receptor; Bz-ATP EC80 (30 μM); 5 μM YO-PRO-1
Procedure, shortened: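 HEK-293 cells stably expressing P2X7 were preloaded with 5 μM YO-PRO-1 in low divalent cation buffer (0.3 mM Ca2+, 0 mM Mg2+). Compounds were added for 5 min before Bz-ATP at EC80 (30 μM, 3× concentration) and dye-uptake fluorescence was followed for 60 min. IC50 from percent inhibition relative to reference antagonist A438079.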

P2X7 receptor [2] = molecular target: T1, P2X7 receptor; experiment: human P2X7 channel assay by automated patch-clamp (QPatch 16X); conditions: HEK-293 cells expressing P2X7 channels, 100 microM BzATP, held at -80 mV, read-out: hP2X7 (IC50; nM)
Method: In order to directly monitor the block of P2X7 channel, an electrophysiological assay was developed and implemented on the QPatch 16X automated electrophysiology instrument.
HEK-293 cells expressing the P2X7 channels were cultured in modified EMEM.
72 hours before experiment, 5 million cells were seeded onto T225 flasks. Just before the experiment cells were washed twice, detached from the flask with trypsin-EDTA, re-suspended in the suspension solution and placed on the QPatch 16x.
The compounds (20 mM in a 100% DMSO) stored at −20° C. were prepared the day of the experiment (a first dilution 1:20 in 100% DMSO to prepare a 1 mM stock solution, then a 1 microM solution in external solution+a serial dilution 1:10).
The standard whole-cell voltage clamp experiments were performed at room temperature. For these experiments the multihole technology was used and the data were sampled at 2 KHz.
The intracellular solution contained (mM) 135 CsF, 10 NaCl, 1 EGTA, 10 HEPES, (pH 7.2 with CsOH) whereas the extracellular contained (mM) 145 NaCl, 4 KCl, 0.5 MgCl2, 1 CaCl2, 10 HEPES, 10 Glc (pH 7.4 with NaOH).
After establishment of the seal and the passage in the whole cell configuration, the cells were held at −80 mV. The P2XR7 current was evoked by applying 100 microM of BzATP alone (4 times) and then in the presence increasing concentrations of the compound under investigation (1, 10, 100 and 1000 nM).
The pre-incubation periods 5 to 8 contain increasing concentrations of the compound of interest (1, 10, 100 and 1000 nM), as illustrated in Figure (application protocol).
The maximal inward current evoked by BzATP in absence or presence of increasing concentrations of the compounds under investigation was measured and normalized.
Y: normalized response, 100% down to 0%, decreasing as X increases.
Log IC50: same log units as X
HillSlope: slope factor or HS, unitless

T1 sequence (Q99572 whole entry): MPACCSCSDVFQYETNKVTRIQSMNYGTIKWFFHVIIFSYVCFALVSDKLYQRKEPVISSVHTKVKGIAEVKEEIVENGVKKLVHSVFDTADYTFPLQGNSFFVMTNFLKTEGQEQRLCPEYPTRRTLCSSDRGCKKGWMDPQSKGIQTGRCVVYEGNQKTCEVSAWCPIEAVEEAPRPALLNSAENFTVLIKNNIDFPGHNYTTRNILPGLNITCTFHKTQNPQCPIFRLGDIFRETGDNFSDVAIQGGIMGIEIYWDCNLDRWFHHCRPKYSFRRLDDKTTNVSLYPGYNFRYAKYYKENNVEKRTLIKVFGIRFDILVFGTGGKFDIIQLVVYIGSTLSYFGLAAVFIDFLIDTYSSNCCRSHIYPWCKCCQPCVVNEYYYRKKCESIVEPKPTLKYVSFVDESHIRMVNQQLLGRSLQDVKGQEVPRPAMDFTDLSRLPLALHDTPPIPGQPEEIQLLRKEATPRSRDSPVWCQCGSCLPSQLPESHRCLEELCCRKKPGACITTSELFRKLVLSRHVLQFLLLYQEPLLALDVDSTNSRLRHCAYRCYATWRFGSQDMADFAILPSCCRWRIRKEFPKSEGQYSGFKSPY
Chain of P2X7 receptor (hP2X7) (Q99572 whole entry): as above

Row | SMILES | IC50 (P2X7 receptor (hP2X7)) | IC50 (P2X7 receptor [1]) | IC50 (P2X7 receptor [2])
1 | Cc1ncsc1C(CNC(=O)c1cc(-c2ncc(F)cn2)ccc1Cl)N1CCCC(F)(F)C1 (stereo not drawn) [Compound 66, 2-chloro-N-[2-(3,3-difluoropiperidin-1-yl)-2-(4-methyl-1,3-thiazol-5-yl)ethyl]-5-(5-fluoropyrimidin-2-yl)benzamide] | 22 nM | 58 nM | 82.5 nM
2 | Cc1ncsc1C(CNC(=O)c1c(F)cccc1Cl)N1CCc2ccccc2C1 (stereo not drawn) [Compound 29, 2-chloro-6-fluoro-N-[2-(4-methyl-1,3-thiazol-5-yl)-2-(1,2,3,4-tetrahydroisoquinolin-2-yl)ethyl]benzamide] | 130 nM | 90 nM | 36.1 nM
3 | Cc1ncsc1C(CNC(=O)c1c(F)cccc1Cl)N1CCC(OCc2ccccc2)CC1 (stereo not drawn) [Compound 59, N-{2-[4-(benzyloxy)piperidin-1-yl]-2-(4-methyl-1,3-thiazol-5-yl)ethyl}-2-chloro-6-fluorobenzamide] | 242 nM | 55 nM | 69.2 nM
4 | O=C(NCC(c1cnc(C2CC2)s1)N1CCC(F)(F)CC1)c1c(F)cccc1Cl (stereo not drawn) [Compound 88, 2-chloro-N-[2-(2-cyclopropyl-1,3-thiazol-5-yl)-2-(4,4-difluoropiperidin-1-yl)ethyl]-6-fluorobenzamide] | 36 nM | 28 nM | 52.1 nM
5 | Cc1ncc(C(CNC(=O)c2cc(-c3ncc(F)cn3)ccc2Cl)N2CCC(F)(F)CC2)s1 (single isomer, unassigned; (+)) [Compound 127, (+)-2-chloro-N-[2-(4,4-difluoro-piperidin-1-yl)-2-(2-methylthiazol-5-yl)ethyl]-5-(5-fluoropyrimidin-2-yl)benzamide] | 73 nM | 22 nM | 65.7 nM
6 | O=C(NCC(c1scnc1C(F)F)N1CCC(F)(F)CC1)c1cc(-c2ncc(F)cn2)ccc1Cl (stereo not drawn) [Compound 102, 2-chloro-N-{2-[4-(difluoromethyl)-1,3-thiazol-5-yl]-2-(4,4-difluoropiperidin-1-yl)ethyl}-5-(5-fluoropyrimidin-2-yl)benzamide] | 60 nM | 34 nM | 57.1 nM
7 | Cc1ncsc1C(CNC(=O)c1c(F)cccc1Cl)N1CCC(Oc2ccccc2)CC1 (stereo not drawn) [Compound 60, 2-chloro-6-fluoro-N-[2-(4-methyl-1,3-thiazol-5-yl)-2-(4-phenoxypiperidin-1-yl)ethyl]benzamide] | 188 nM | 79 nM | 58.9 nM
8 | O=C(NCC(c1cnco1)N1CCC(F)(F)CC1)c1cc(-c2ncc(F)cn2)ccc1Cl (stereo not drawn) [Compound 47, 2-chloro-N-[2-(4,4-difluoropiperidin-1-yl)-2-(1,3-oxazol-5-yl)ethyl]-5-(5-fluoropyrimidin-2-yl)benzamide] | 43 nM | 36 nM | 33.9 nM
9 | Cc1ncsc1C(CNC(=O)c1cc(-c2cnccn2)ccc1Cl)N1CCC(F)(F)CC1 (stereo not drawn) [Compound 72, 2-chloro-N-[2-(4,4-difluoropiperidin-1-yl)-2-(4-methyl-1,3-thiazol-5-yl)ethyl]-5-(pyrazin-2-yl)benzamide] | 30 nM | 60 nM | 78.1 nM
10 | Cc1ncc(C(CNC(=O)c2c(C)cccc2Cl)N2CCC(F)(F)CC2)s1 (stereo not drawn) [Compound 39, 2-chloro-N-[2-(4,4-difluoropiperidin-1-yl)-2-(2-methyl-1,3-thiazol-5-yl)ethyl]-6-methylbenzamide] | 28 nM | 18 nM | 61.9 nM
